# Results from US20240216315A1, “METHODS AND COMPOSITIONS FOR TREATMENT OF DIABETIC RETINOPATHY AND RELATED CONDITIONS” (Ocuphire Pharma, Inc., priority 2021, published 2024).
# How the values were obtained:
# [1] = Phase 2 clinical study, safety: blood chemistry (alanine and aspartate aminotransferase in subjects' blood); type: in vivo, human; settings: combined placebo and Compound 1 patients
# From the text: (§1) The study is to be configured as a placebo-controlled, double-masked, randomized, Phase 2 study in approximately 100 subjects with moderately severe to severe NPDR (diabetic retinopathy severity score [DRSS] Level 47 or 53, see FIG. 1) or mild PDR (DRSS Level 61), evaluating safety and efficacy following administration of Compound 1 twice daily for 24 weeks. The study will have a 1:1 randomization (placebo: Compound 1). Randomization will be stratified by level of disease severity (NPDR or PDR). Subjects with mild PDR will be capped at 20% for each arm. Efficacy evaluations at 12 and/or 24 weeks will include DRSS, center-involved diabetic macular edema (DME), moderate PDR or PDR-related adverse events (AEs), best-corrected visual acuity (BCVA), and central subfield thickness (CST). Further experimental procedures and results are described below.
# (§2) At the Qualification/Baseline (Visit 2, Day 1): • The subject will be randomized into the study. • Study medication will be dispensed in accordance with the subjects randomized treatment arm. • Blood samples will be drawn pre-dose for baseline levels and on Visit 9 (Week 24) for exploratory biomarker processing (i.e., cytokine and Ref-1 levels) to evaluate pharmacodynamic properties. • Subjects will be instructed to administer their study medication (APX3330 or placebo) cach day, with 3 tablets every morning and 2 tablets every evening. Study medication should be taken at approximately the same time each day and may be taken with or without food.
# At the Second Treatment Visit (Visit 6, Week 12±2 Days), subjects will return to the site for the following series of safety and efficacy assessments: drug accountability, concomitant medications, urine pregnancy test (only for women of childbearing potential), HR/BP/vital signs, BCVA (ETDRS), DRSS, CST (SD-OCT), blood draw for PK, blood chemistry, blood hematology, biomicroscopy, ophthalmoscopy, IOP, eGFR, and AEs. Following the completion of the assessments, used medication kits will be collected for accountability (by counting the number of unused tablets), and new study medication kits will be dispensed.
# At the Third Treatment Visit (Visit 9, Week 24±2 Days), subjects will return to the site for the following series of safety and efficacy assessments: drug accountability, concomitant medications, urine pregnancy test (only for women of childbearing potential), physical examination, HR/BP/vital signs, BCVA (ETDRS), DRSS, CST (SD-OCT), blood chemistry, blood hematology, biomicroscopy, ophthalmoscopy, IOP, cGFR, AEs, and blood draw for exploratory biomarkers (ELISA, cytokine panel, comprehensive metabolic panel). Visit 9 (Week 24) is the end of the treatment period. Study medication will be returned for accountability (by counting the number of unused tablets), and no further study medication will be dispensed.
# Study subjects will receive study medication as set forth in Table 1 according to the Treatment Group to which the subject is assigned. Subjects will be instructed to take study medication at approximately the same time each day, and the medication may be taken with or without food. […]
# [2] = Phase 2 clinical study, safety: treatment-emergent adverse events; type: in vivo, human
# From the text: as §1, §2
# Telephone safety calls will be conducted for Visit 3 (Week 1±2 Days), Visit 5 (Week 8±2 Days), Visit 7 (Week 16±2 Days), and Visit 8 (Week 20±2 Days). The safety assessment will include review of drug compliance, concomitant medications, AEs, and urine pregnancy test at home (only for women of childbearing potential).
# Study subjects will receive study medication as set forth in Table 1 according to the Treatment Group to which the subject is assigned. […]
structure (smiles),measurement,setting,value
"CCCCCCCCC/C(=C\C1=C(C)C(=O)C(OC)=C(OC)C1=O)C(=O)O [Compound 1, (E)-2-((4,5-dimethoxy-2-methyl-3,6-dioxocyclohexa-1,4-dien-1-yl)methylene)undecanoic acid]",change in mean concentration of alanine aminotransferase in subjects' blood relative to Baseline,"[1]; week 12, 50 subjects",−0.8 IU/L
same,change in mean concentration of aspartate aminotransferase in subjects' blood relative to Baseline,"[1]; week 12, 50 subjects",−0.5 IU/L
same,reduction in mean concentration of alanine aminotransferase in subjects' blood relative to Baseline,"[1]; week 12, 50 subjects",3.6%
same,reduction in mean concentration of aspartate aminotransferase in subjects' blood relative to Baseline,"[1]; week 12, 50 subjects",3%
same,change in mean concentration of alanine aminotransferase in subjects' blood relative to Baseline,"[1]; week 24, 22 subjects",−2.1 IU/L
same,change in mean concentration of aspartate aminotransferase in subjects' blood relative to Baseline,"[1]; week 24, 22 subjects",−1.8 IU/L
same,reduction in mean concentration of alanine aminotransferase in subjects' blood relative to Baseline,"[1]; week 24, 22 subjects",9.4%
same,reduction in mean concentration of aspartate aminotransferase in subjects' blood relative to Baseline,"[1]; week 24, 22 subjects",9%
same,safety profile in the patient population enrolled,[2]; Compound 1 administered orally according to the study protocol (600 mg/day),good safety profile
same,total of treatment-emergent adverse events observed,"[2]; from the 100 subjects enrolled, combined placebo and Compound 1 patients",83
same,subjects that reported at least one treatment-emergent adverse event,"[2]; of 100 subjects enrolled, combined placebo and Compound 1 patients",41
